Laboratory results from US20250073337A1, “NOVEL SKIN-PERMEABLE PEPTIDE, COMPOSITION INCLUDING THE SAME FOR SKIN AND MUCOUS MEMBRANE, AND USE THEREOF” (CELLICON LAB INC., priority 2022, published 2025).

Columns and labels:
actual human skin = details: mixture of peptide and caffeine vs caffeine alone, measured over time; FIG. 2
Procedure: A mixture of the skin-permeable peptide of SEQ ID NO: 8 and caffeine or caffeine alone was treated to evaluate skin permeability thereof.
In detail, Franz diffusion cell assay was performed using actual human skin as in Example 1, and the permeation amount of caffeine was measured by HPLC and then compared (FIG. 2).

HDF cells = test: Collagen production in HDF cells (Collagen type I ELISA); assay type: cell-based; details: mixture of peptide and KTTKS peptide vs KTTKS alone, 48 hours; FIG. 5
Procedure: In order to examine the efficacy improvement of the bioactive material due to the skin permeation effect of the active ingredient by the peptide of SEQ ID NO: 8, HDF cells were treated with a mixture of KTTKS peptide, which is a bioactive material, and the peptide of SEQ ID NO: 8, or treated with KTTKS peptide alone, and collagen production amounts were analyzed using an ELISA assay.
HDF cells used in this experiment were purchased from Thermo Fisher Scientific (Waltham, MA, USA). HDF cells were cultured in Dulbecco's Modified Eagle's Medium (DMEM) supplemented with 10% fetal bovine serum (FBS), 100 U/mL penicillin, and 100 μg/mL streptomycin (Gipco, Life Technologies, Grand Island, NY, USA) and cultured in a 5% CO2 incubator at 37° C.
HDF cells at a density of 2×10^5 cells/mL were dispensed in a volume of 250 μL in 48 wells and allowed to stabilize for 24 hours. Samples were treated at different concentrations and cultured in a CO2 incubator for 48 hours, and then each culture was obtained. […] 100 μL of TMB substrate was dispensed therein, left in the dark for 30 minutes, and treated with 50 μL of a stop solution, and then absorbance was measured at 450 nm with a microspectrophotometer (Molecular Device, Sunnyvale, CA, USA).

human skin [1] = details: mixture of peptide and fluorescein liposome (180 nm) vs liposome alone, 3 hours; FIG. 4
Procedure: Aqueous solutions were then obtained through Franz diffusion cell assay, and FITC fluorescence values were analyzed using a fluorescence microplate reader (SpectraMax i3, Molecular Devices, USA).
Fluorescein was liposomized using a liposome kit purchased from Sigma Aldrich (MO, USA) and liposomizing Fluorescein was used as liposome for the skin permeability tests.

real human skin = details: mixture of peptide and lidocaine, 2 mM sample, 6 hours; compared with known peptide (TAT) and with lidocaine alone; FIG. 1
Procedure: A mixture of skin-permeable peptides consisting of any one amino acid sequence selected from SEQ ID NO: 5 to SEQ ID NO: 8 and derivatives thereof of SEQ ID NO: 1 to SEQ ID NO: 4, or the known peptide and lidocaine, or lidocaine alone was treated to evaluate skin permeability.
In detail, to evaluate the skin permeability, real human skin was used and the skin permeability was measured by a Franz diffusion cell assay, and the permeation amount of lidocaine was measured by HPLC and then compared.
Human skin used in this experiment was purchased from UMC Science Co., Ltd., Korea, and phosphate-buffered saline (PBS, Gibco, USA) was purchased from Sigma-Aldrich. […]
The temperature of the receptor fluid was maintained constant at 32° C.±1° C., and the humidity was maintained at 30-70%, followed by stabilization for 30 minutes. […] 6 hours later, sampling was performed through a sampling arm of the receptor, and for quantification, STD (100 μM standard sample) and the sample were analyzed through HPLC, and the permeability was expressed as a percentage (%) as compared to STD.

human skin [2] = details: mixed with peptide vs treated alone; FIG. 3
Procedure: The FITC conjugation method was performed in accordance with the manufacturer's instructions by purchasing an FITC conjugation kit (Lightning-Link® (ab188285)) from Abcam (Cambridge, MA, USA).

H-RKLFRKILKYLR-OH [SEQ ID NO: 8, H2N-[Arg-Lys-Leu-Phe-Arg-Lys-Ile-Leu-Lys-Tyr-Leu-Arg]-CO2H]
skin permeation amount of caffeine (actual human skin): significantly superior | production amount of collagen (HDF cells): significantly increased | skin permeation effect of the liposome (human skin [1]): remarkably increased | skin permeation amount of lidocaine (real human skin): highest effect | skin permeability effect of 3 kDa FITC-conjugated collagen (human skin [2]): strong skin permeability effects | skin permeability effect of 30 kDa FITC-conjugated collagen (human skin [2]): strong skin permeability effects | skin permeability effect of 300 kDa FITC-conjugated collagen (human skin [2]): strong skin permeability effects | skin permeability effect of 800 kDa hyaluronic acid (HA) (human skin [2]): strong skin permeability effects
